Broadly, the IC50 is the point on the concentration scale where inhibition reaches its midpoint. One may read the AUC(0-t) as exposure summed from dosing to a finite time, without extrapolation to infinity. Higher therefore signals high exposure.

Numbering of substitutions follows the chain as printed. The source made the active and inactive calls. The rule behind the calls is not given here.

Data set [1] relates to HCT-116. Kind of data set: Downregulation of AT13387-induced HSP70 mRNA expression in human HCT-116 cells at 50 uM incubated for 24 hrs by qRT-PCR analysis. The format is functional, cell-based.
The subject of data set [2] is HCT-116. The experiment in a line: Enhancement of HSP90 inhibitor AT13387-induced antiproliferative activity against human HCT-116 cells assessed as HSP90 inhibitor AT13387 IC50 at 50 uM incubated for 72 hrs by CCK8 assay (reference value: 78.49 nM). The conditions noted are these: HCT-116, 72 h. Type of data set: functional, cell-based. On the technique in general: Tetrazolium assays rely on reduction of a dye to a coloured formazan, in cell work by metabolically active cells.

Data set [3] can be described thus: Toxicity in BALB/c nude mouse xenografted with human HCT-116 cells assessed as body weight loss at 60 mg/kg, ip administered every other day for 14 days. Type of data set: organism-based. The conditions noted are these: in vivo, 336 h, time 14 day.
Data set [4] concerns HCT-116. The experiment in a line: Downregulation of AT13387-induced HSP27 expression in human HCT-116 cells at 50 uM incubated for 24 hrs by Western blot analysis. Type of data set: functional, cell-based. (In general: In western blotting, separated proteins are transferred to a membrane and probed.)
Data set [5] concerns HCT-116. Kind of data set: Downregulation of AT13387-induced HSP70 expression in PP5 Knockout human HCT-116 cells at 50 uM incubated for 24 hrs by Western blot analysis. The format is functional, cell-based.
Data set [6] deals with HCT-116. The experiment in a line: Antitumor activity against human HCT-116 cells xenografted in BALB/c nude mouse assessed as decrease in AT13387-induced HSP27 protein expression in tumor at 30 to 60 mg/kg, ip administered every other day for 14 days by Western blot analysis. The format is functional, organism-based. The conditions noted are these: dose 30-60 mg/kg, time 14.0 day. In general terms: A xenograft is tissue or cells of one species grown in another, often human tumour cells in immunodeficient mice.

Data set [7] in a line: AUC (0 to t) in Sprague-Dawley rat at 10 mg/kg, ip measured after 8 hrs by LC-MS/MS analysis. To be noted: in vivo. The format is ADME, organism-based.
Data set [8] concerns HCT-116. Kind of data set: Antitumor activity against human HCT-116 cells xenografted in BALB/c nude mouse at 30 to 60 mg/kg, ip administered every other day for 14 days in presence of AT13387. The conditions noted are these: dose 30-60 mg/kg, time 14.0 day. The format is functional, organism-based.
The target in data set [9] is T1, Low molecular weight phosphotyrosine protein phosphatase (Homo sapiens) (UniProt P24666).
T1 sequence (whole entry): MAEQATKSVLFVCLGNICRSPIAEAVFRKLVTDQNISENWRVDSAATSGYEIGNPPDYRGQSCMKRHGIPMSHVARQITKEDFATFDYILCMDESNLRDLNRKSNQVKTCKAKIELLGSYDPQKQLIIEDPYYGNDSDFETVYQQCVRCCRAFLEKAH
Kind of data set: Inhibition of LMPTP-A (unknown origin) using DiFMUP as substrate at 0.01 to 1000 uM. To be noted: dose 0.01-1000 µM.

Data set [10] relates to T2, Serine/threonine-protein phosphatase 5 (Homo sapiens), P53041 [V429A].
T2 sequence (whole entry): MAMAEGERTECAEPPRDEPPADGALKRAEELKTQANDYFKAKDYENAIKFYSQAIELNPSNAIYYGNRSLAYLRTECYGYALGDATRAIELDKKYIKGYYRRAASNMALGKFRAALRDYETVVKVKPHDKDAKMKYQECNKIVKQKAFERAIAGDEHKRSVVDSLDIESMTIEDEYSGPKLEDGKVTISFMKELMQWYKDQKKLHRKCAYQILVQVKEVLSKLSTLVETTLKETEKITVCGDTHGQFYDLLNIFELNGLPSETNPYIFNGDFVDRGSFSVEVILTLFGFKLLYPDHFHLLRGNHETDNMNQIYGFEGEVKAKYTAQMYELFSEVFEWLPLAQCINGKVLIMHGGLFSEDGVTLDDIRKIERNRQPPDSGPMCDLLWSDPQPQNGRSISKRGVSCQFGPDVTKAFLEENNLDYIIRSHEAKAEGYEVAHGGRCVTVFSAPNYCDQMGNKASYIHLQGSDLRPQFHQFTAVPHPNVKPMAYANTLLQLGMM
Kind of data set: Binding affinity to PP5 V429A mutant (unknown origin) by ITC analysis.

For data set [11], the system named is T3, Serine/threonine-protein phosphatase 5 (Homo sapiens), P53041 [E428A].
T3 sequence (whole entry): T2 sequence (whole entry) with E428A, A429V
Kind of data set: Activation of PP5 E428A mutant (unknown origin) using pNPP as substrate assessed as increase in phosphatase activity at 10 to 200 uM incubated for 30 mins by spectrophotometric analysis. The conditions noted are these: dose 10-200 µM.

In data set [12] the target is T4, Serine/threonine-protein phosphatase 5 (Homo sapiens) (UniProt P53041).
T4 sequence (whole entry): T2 sequence (whole entry) with A429V
The experiment in a line: Binding affinity to human PP5 extracted from Escherichia coli BL21 using CDC37 as substrate assessed as increase in dephosphorylation of p-CDC37 at S13 residue incubated for 1 hrs by Western blot analysis. The conditions noted are these: filed as activator, dose 5-50 µM.

In the case of `N=c1oc2cc(F)cc(F)c2cc1C(N)=S`, the result in the data set with HCT-116 [1], with HCT-116 [4], in the data set on HCT-116 [6] and with HCT-116 [8] was Active. In addition, in the data set on HCT-116 [2], the IC50 was found to be 0.0408 µM. Further, the Activity result in [3] is “Non-Toxic”; in data set [12], “Dose-Dependent Effect”. In addition, the outcome (with HCT-116 [5]; in data set [10]; in data set [11]) was inactive. For the same compound, in [7], the AUC(0-t) at 8 h is 0.111 µg·h/mL. Besides, the inhibition entry in data set [9] was “inactive”.
